{
  "source": "paper PMC5365654",
  "about": "“Cyclic Boronates Inhibit All Classes of β-Lactamases” (Antimicrobial Agents and Chemotherapy, 2017)",
  "type_in_all_cases": "cell-based",
  "key": {"[1]": {"test_system": "E. coli EC113, ST 131", "test": "Broth microtiter dilution MIC, EC113", "settings": "Escherichia coli, CTX-M-27 (A), read-out: MIC (mg/liter) for β-lactam", "method": "(§1) The in vitro activity of cyclic boronate 2 was assessed using nine clinical isolates carrying multiple β-lactamases (Table 3). The isolates selected included Enterobacteriaceae (E. coli ST 131, Klebsiella pneumoniae ST 258, and Providencia stuartii) producing class A ESBLs (CTX-M-15, CTX-M-27, SHV-5, and VEB-1), serine carbapenemase (KPC-2) and metallo-carbapenemases (VIM-1 and VIM-2), plasmid-mediated AmpC (CMY-2), and/or carbapenem-hydrolyzing OXA-48-like oxacillinases (OXA-181 and OXA-232) in various combinations. The activity against carbapenemase-producing strains of Pseudomonas aeruginosa (VIM-2) and Acinetobacter baumannii (OXA-23) was also investigated. All isolates have previously undergone extensive phenotypic and genotypic characterization ([60]).\n(§2) MICs were determined using commercial Sensititre GN4F panels (Thermo Scientific, UK; lot B55051) and Mueller-Hinton II cation-adjusted broth (Oxoid, UK), with and without the addition of cyclic boronate 2 at a fixed concentration of 10 μg/ml. Plates were incubated at 37°C for 18 h and MICs read by eye following the addition of alamarBlue reagent (Trek Diagnostics)."}, "[2]": {"test_system": "P. stuartii PS71", "test": "Broth microtiter dilution MIC, PS71", "settings": "Providencia stuartii, TEM-1 (A), SHV-5 (A), VEB-1 (A), VIM-1 (B), read-out: MIC (mg/liter) for β-lactam", "method": "as §1, §2"}, "[3]": {"test_system": "E. coli EC107, ST 131", "test": "Broth microtiter dilution MIC, EC107", "settings": "Escherichia coli, CTX-M-15 (A), OXA-1 (D), read-out: MIC (mg/liter) for β-lactam", "method": "as §1, §2"}, "[4]": {"test_system": "A. baumannii AB14", "test": "Broth microtiter dilution MIC, AB14", "settings": "Acinetobacter baumannii, OXA-23 (D), OXA-51 (D), read-out: MIC (mg/liter) for β-lactam", "method": "as §1, §2"}, "[5]": {"test_system": "K. pneumoniae KP15", "test": "Broth microtiter dilution MIC, KP15", "settings": "Klebsiella pneumoniae, TEM-1 (A), SHV-11 (A), KPC-2 (A), read-out: MIC (mg/liter) for β-lactam", "method": "as §1, §2"}, "[6]": {"test_system": "P. aeruginosa PA12, ST 111", "test": "Broth microtiter dilution MIC, PA12", "settings": "Pseudomonas aeruginosa, VIM-2 (B), read-out: MIC (mg/liter) for β-lactam", "method": "as §1, §2"}, "[7]": {"test_system": "E. coli EC114, ST 131", "test": "Broth microtiter dilution MIC, EC114", "settings": "Escherichia coli, TEM-1 (A), CTX-M-15 (A), OXA-1 (D), read-out: MIC (mg/liter) for β-lactam", "method": "as §1, §2"}, "[8]": {"test_system": "K. pneumoniae KP58", "test": "Broth microtiter dilution MIC, KP58", "settings": "Klebsiella pneumoniae, SHV-11 (A), VIM-4 (B), read-out: MIC (mg/liter) for β-lactam", "method": "as §1, §2"}, "[9]": {"test_system": "K. pneumoniae (KP58)", "method": "(§3) Combination discs (Oxoid) were prepared with a fixed ratio of 2:1 between the β-lactam (μg) and cyclic boronate 2. Zones of inhibition around combined and unsupplemented discs were compared following overnight incubation on MH II plates."}, "[10]": {"test_system": "K. pneumoniae (KP15)", "method": "as §3"}, "[11]": {"test_system": "K. pneumoniae (KP41)", "method": "as §3"}, "[12]": {"test_system": "E. coli EC86", "test": "Broth microtiter dilution MIC, EC86", "settings": "E. coli EC86, CTX-M-15 (A), CMY-4 (C), OXA-181 (D)", "method": "as §1, §2"}, "[13]": {"test_system": "K. pneumoniae KP41", "test": "Broth microtiter dilution MIC, KP41", "settings": "Klebsiella pneumoniae, TEM-1, SHV-1, SHV-5, SHV-11, CTX-M-15 (A), OXA-232 (D), read-out: MIC (mg/liter) for β-lactam", "method": "as §1, §2"}, "[14]": {"settings": "with cyclic boronate 2 (10 mg/liter) supplementation"}, "[15]": {"settings": "without cyclic boronate 2 supplementation"}},
  "note": "Where two headings read alike, the source gives them in different places.",
  "data": [
    {"molecule": "CCN1CCN(C(=O)N[C@@H](C(=O)N[C@@H]2C(=O)N3[C@@H]2SC(C)(C)[C@@H]3C(=O)O)c2ccccc2)C(=O)C1=O", "note": "[PIP, piperacillin]", "values": [
      {"measurement": "MIC", "setting": "[1]; [14]", "result": "≤ 16", "unit": "mg/L"},
      {"measurement": "MIC", "setting": "[1]; [15]", "result": "> 64", "unit": "mg/L"},
      {"measurement": "MIC", "setting": "[2]; [14]", "result": "> 64", "unit": "mg/L"},
      {"measurement": "MIC", "setting": "[2]; [15]", "result": "> 64", "unit": "mg/L"},
      {"measurement": "MIC", "setting": "[3]; [14]", "result": "> 64", "unit": "mg/L"},
      {"measurement": "MIC", "setting": "[3]; [15]", "result": "> 64", "unit": "mg/L"},
      {"measurement": "MIC", "setting": "[4]; [14]", "result": "> 64", "unit": "mg/L"},
      {"measurement": "MIC", "setting": "[4]; [15]", "result": "> 64", "unit": "mg/L"},
      {"measurement": "MIC", "setting": "[5]; [14]", "result": "> 64", "unit": "mg/L"},
      {"measurement": "MIC", "setting": "[5]; [15]", "result": "> 64", "unit": "mg/L"},
      {"measurement": "MIC", "setting": "[6]; [14]", "result": 64, "unit": "mg/L"},
      {"measurement": "MIC", "setting": "[6]; [15]", "result": "> 64", "unit": "mg/L"},
      {"measurement": "MIC", "setting": "[7]; [14]", "result": "> 64", "unit": "mg/L"},
      {"measurement": "MIC", "setting": "[7]; [15]", "result": "> 64", "unit": "mg/L"},
      {"measurement": "MIC", "setting": "[8]; [14]", "result": "> 64", "unit": "mg/L"},
      {"measurement": "MIC", "setting": "[8]; [15]", "result": "> 64", "unit": "mg/L"},
      {"measurement": "Synergy When Combined with (2): Fixed 2:1 µg Ratio", "setting": "[9]", "result": "Y"},
      {"measurement": "Synergy When Combined with (2): Fixed 2:1 µg Ratio", "setting": "[10]", "result": "Y"},
      {"measurement": "Synergy When Combined with (2): Fixed 2:1 µg Ratio", "setting": "[11]", "result": "N"},
      {"measurement": "MIC (mg/liter) for β-lactam", "setting": "[12]; [15]", "result": ">64", "unit": "mg/L"},
      {"measurement": "MIC", "setting": "[12]; Escherichia coli, with cyclic boronate 2 (10 mg/liter) supplementation, read-out: MIC (mg/liter) for β-lactam", "result": "> 64", "unit": "mg/L"},
      {"measurement": "MIC", "setting": "[13]; [14]", "result": "> 64", "unit": "mg/L"},
      {"measurement": "MIC", "setting": "[13]; [15]", "result": "> 64", "unit": "mg/L"}
    ]}
  ]
}
